Experimental data from patent US20260325533A1, “CDK INHIBITOR COMPOUNDS” (ALEKSIA THERAPEUTICS, INC., priority 2023, published 2026).
Like-named read-outs stand apart in the source and are kept apart here.

Experiments:
Format in all cases: biochemical
CDK6/CCND1 = CDK6/CCND1 (Homo sapiens, UniProt Q00534); test: CDK6 homogeneous time-resolved fluorescence (HTRF) kinase assay; settings: CDK6/CCND
How it was run: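 Assay conditions: HEPES buffer containing 10 mM MgCl2, 1 mM EGTA, 2 mM DTT, 0.01% Tween 20; 1 nM CDK6/CCND1, 50 nM peptide substrate, 1 mM ATP. Detection after 60 min reaction used 2 nM europium antibody with 340 nm excitation. Potency fitted from half-log series, 11 points.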

CDK4/CCND3 = CDK4/CCND3 (Homo sapiens, UniProt P11802); test: CDK4 homogeneous time-resolved fluorescence (HTRF) kinase assay; settings: CDK4/CCND
How it was run: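 IC50s derive from Lance 665 nm or 665/615 nm signals in 11-point, half-log dose series (top 10 μM, 1% DMSO). The enzyme, 1.5 nM CDK4/CCND3, phosphorylates 50 nM ULight-4E-BP1 peptide with 1 mM ATP over 60 min at 23 °C.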

CDK1/CCNB1 = CDK1/CCNB1 (Homo sapiens, UniProt P06493); test: CDK1 homogeneous time-resolved fluorescence (HTRF) kinase assay; settings: CDK1/CCNB
How it was run: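 Kinase activity is measured as Lance signal (665 nm, or 665/615 nm ratio) from europium-labelled anti-phospho-Thr37/46 antibody binding ULight-4E-BP1 peptide. Reactions contain 0.5 nM enzyme, 1 mM ATP, 1% DMSO and run 60 min at 23 °C before EDTA quench.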

CDK2/CCNE1 = CDK2/CCNE1 (Homo sapiens, UniProt P24941); test: CDK2 homogeneous time-resolved fluorescence (HTRF) kinase assay; settings: CDK2/CCNE
How it was run: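 An HTRF format measures CDK2/CCNE1 (3 nM) phosphorylating a 4E-BP1 Thr37/46 peptide at high (1 mM) ATP. Reactions run one hour at 23 °C, then EDTA-quenched and probed with Eu-labelled phospho-specific antibody.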

[1] = >250 nM, read-out: CDK1/CCNB IC50 >250 nM
[2] = x = IC50 >250 nM, read-out: CDK6/CCND IC50 (>250 nM column)
[3] = x = IC50 >250 nM, read-out: CDK4/CCND IC50 (>250 nM column)
[4] = x = IC50 >250 nM, read-out: CDK1/CCNB IC50 (>250 nM column)
[5] = x = IC50 <25 nM, read-out: CDK2/CCNE IC50 (<25 nM)
[6] = >250 nM, 1 mM ATP, read-out: CDK6/CCND IC50, >250 nM
[7] = >250 nM, read-out: CDK4/CCND IC50, >250 nM
[8] = 25-250 nM, read-out: CDK2/CCNE IC50, 25-250 nM
[9] = x = IC50 25-250 nM, read-out: CDK2/CCNE IC50 (25-250 nM)
[10] = <25 nM, read-out: CDK2/CCNE IC50 <25 nM
[11] = x = IC50 25-250 nM, read-out: CDK4/CCND IC50 (25-250 nM)
[12] = x = IC50 25-250 nM, read-out: CDK1/CCNB IC50 (25-250 nM)
[13] = >250 nM marked x, read-out: CDK6/CCND IC50 >250 nM
[14] = >250 nM marked x, read-out: CDK4/CCND IC50 >250 nM
[15] = >250 nM marked x, read-out: CDK1/CCNB IC50 >250 nM

CDK4/CCND3, sequence (P11802 whole entry): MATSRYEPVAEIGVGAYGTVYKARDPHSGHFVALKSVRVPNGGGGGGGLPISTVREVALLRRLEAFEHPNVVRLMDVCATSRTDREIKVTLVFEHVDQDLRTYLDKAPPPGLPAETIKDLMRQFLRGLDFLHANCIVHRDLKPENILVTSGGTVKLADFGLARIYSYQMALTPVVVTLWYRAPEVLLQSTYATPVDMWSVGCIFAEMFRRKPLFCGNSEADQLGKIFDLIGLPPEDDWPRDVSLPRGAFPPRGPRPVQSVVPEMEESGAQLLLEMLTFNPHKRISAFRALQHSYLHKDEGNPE
CDK4/CCND3, sequence (P30281 whole entry partner): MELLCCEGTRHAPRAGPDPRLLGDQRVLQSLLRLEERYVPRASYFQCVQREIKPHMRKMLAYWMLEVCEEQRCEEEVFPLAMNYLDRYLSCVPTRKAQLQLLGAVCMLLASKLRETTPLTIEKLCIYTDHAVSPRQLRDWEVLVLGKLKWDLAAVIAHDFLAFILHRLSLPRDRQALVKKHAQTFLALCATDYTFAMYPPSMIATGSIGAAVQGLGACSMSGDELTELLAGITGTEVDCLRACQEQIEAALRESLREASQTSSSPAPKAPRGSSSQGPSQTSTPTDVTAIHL
CDK1/CCNB1, sequence (P06493 whole entry): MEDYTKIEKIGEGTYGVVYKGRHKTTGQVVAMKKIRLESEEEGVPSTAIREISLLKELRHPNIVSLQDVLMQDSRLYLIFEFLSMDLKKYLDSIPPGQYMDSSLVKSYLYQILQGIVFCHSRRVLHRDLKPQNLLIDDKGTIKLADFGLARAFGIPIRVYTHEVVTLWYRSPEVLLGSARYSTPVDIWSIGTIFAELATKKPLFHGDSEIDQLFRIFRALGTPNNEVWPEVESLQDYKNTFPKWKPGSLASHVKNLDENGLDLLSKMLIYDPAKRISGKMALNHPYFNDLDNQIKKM
CDK1/CCNB1, sequence (P14635 whole entry partner): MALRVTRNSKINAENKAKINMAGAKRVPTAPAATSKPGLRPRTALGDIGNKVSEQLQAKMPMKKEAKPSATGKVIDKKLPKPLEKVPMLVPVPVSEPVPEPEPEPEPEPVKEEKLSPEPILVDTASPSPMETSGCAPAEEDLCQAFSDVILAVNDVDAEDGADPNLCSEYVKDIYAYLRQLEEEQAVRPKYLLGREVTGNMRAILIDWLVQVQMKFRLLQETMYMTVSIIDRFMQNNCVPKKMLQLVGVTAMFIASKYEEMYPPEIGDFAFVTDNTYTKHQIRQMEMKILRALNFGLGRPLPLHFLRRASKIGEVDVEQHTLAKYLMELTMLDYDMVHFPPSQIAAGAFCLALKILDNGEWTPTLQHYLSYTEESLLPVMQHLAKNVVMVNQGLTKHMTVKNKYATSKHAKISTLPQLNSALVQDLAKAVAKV
CDK6/CCND1, sequence (Q00534 whole entry): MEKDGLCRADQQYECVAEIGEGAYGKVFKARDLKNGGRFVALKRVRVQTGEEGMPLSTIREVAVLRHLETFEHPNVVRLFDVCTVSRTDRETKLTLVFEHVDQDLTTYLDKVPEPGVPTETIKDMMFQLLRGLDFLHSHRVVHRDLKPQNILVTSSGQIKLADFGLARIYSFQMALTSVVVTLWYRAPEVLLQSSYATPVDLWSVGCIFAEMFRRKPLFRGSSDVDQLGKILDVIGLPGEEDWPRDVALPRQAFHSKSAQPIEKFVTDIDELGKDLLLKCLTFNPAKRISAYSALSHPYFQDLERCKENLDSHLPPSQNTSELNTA
CDK6/CCND1, sequence (P24385 whole entry partner): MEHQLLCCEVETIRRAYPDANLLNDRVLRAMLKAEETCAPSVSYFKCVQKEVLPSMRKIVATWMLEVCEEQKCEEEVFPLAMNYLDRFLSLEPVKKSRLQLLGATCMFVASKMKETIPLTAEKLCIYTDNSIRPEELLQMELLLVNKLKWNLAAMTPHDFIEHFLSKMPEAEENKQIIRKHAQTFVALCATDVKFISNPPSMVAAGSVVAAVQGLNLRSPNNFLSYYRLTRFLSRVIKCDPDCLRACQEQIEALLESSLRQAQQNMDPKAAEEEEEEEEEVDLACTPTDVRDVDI

Cc1cnc(NS(=O)(=O)c2ccc(Nc3cc4c(-c5ccc6c(cnn6CC(C)(C)O)c5C)nccc4cn3)cc2)nc1 [Ex 896, 4-((5-(1-(2-hydroxy-2-methylpropyl)-4-methyl-1H-indazol-5-yl)-2,6-naphthyridin-3-yl)amino)-N-(5-methylpyrimidin-2-yl)benzenesulfonamide]
IC50 (CDK6/CCND1; 25-250 nM, 1 mM ATP, read-out: CDK6/CCND IC50, 25-250 nM): 25 to 250 nM
IC50 (CDK4/CCND3; 25-250 nM, read-out: CDK4/CCND IC50, 25-250 nM): 25 to 250 nM
IC50 (CDK1/CCNB1; [1]): > 250 nM
IC50 (CDK2/CCNE1; <25 nM, read-out: CDK2/CCNE IC50, <25 nM): < 25 nM

CCS(=N)(=O)c1ccc(Nc2cc3c(C#Cc4ccc(=O)[nH]n4)nccc3cn2)cc1 (single isomer, unassigned) [Example 403, 6-((7-((4-(ethylsulfonimidoyl)phenyl)amino)-2,6-naphthyridin-1-yl)ethynyl)pyridazin-3(2H)-one]
IC50 (CDK6/CCND1; [2]): > 250 nM
IC50 (CDK4/CCND3; [3]): > 250 nM
IC50 (CDK1/CCNB1; [4]): > 250 nM
IC50 (CDK2/CCNE1; [5]): < 25 nM

Cc1c(-c2ncc(F)c3cnc(Nc4ccc(S(C)(=O)=O)cc4)cc23)ccc2c1cnn2CC(C)(C)O [Example 788, 1-(5-(4-fluoro-7-((4-(methylsulfonyl)phenyl)amino)-2,6-naphthyridin-1-yl)-4-methyl-1H-indazol-1-yl)-2-methylpropan-2-ol]
IC50 (CDK6/CCND1; [6]): > 250 nM
IC50 (CDK4/CCND3; [7]): > 250 nM
IC50 (CDK1/CCNB1; [1]): > 250 nM
IC50 (CDK2/CCNE1; [8]): 25 to 250 nM

Cc1c(-c2nccc3cnc(Nc4ccc(NS(=O)(=O)c5cnn(-c6ccccn6)c5)cc4)cc23)ccc2c1cnn2CC(C)(C)O [Ex 824, N-(4-((5-(1-(2-hydroxy-2-methylpropyl)-4-methyl-1H-indazol-5-yl)-2,6-naphthyridin-3-yl)amino)phenyl)-1-(pyridin-2-yl)-1H-pyrazole-4-sulfonamide]
IC50 (CDK6/CCND1; [6]): > 250 nM
IC50 (CDK4/CCND3; [7]): > 250 nM
IC50 (CDK1/CCNB1; [1]): > 250 nM
IC50 (CDK2/CCNE1; [8]): 25 to 250 nM

CN1CCN(c2ccc(C#Cc3nccc4cnc(Nc5ccc(S(=O)(=O)Nc6ncccn6)cc5)cc34)cc2)CC1 [Ex 864, 4-((5-((4-(4-methylpiperazin-1-yl)phenyl)ethynyl)-2,6-naphthyridin-3-yl)amino)-N-(pyrimidin-2-yl)benzenesulfonamide]
IC50 (CDK6/CCND1; [6]): > 250 nM
IC50 (CDK4/CCND3; [7]): > 250 nM
IC50 (CDK1/CCNB1; [1]): > 250 nM
IC50 (CDK2/CCNE1; [8]): 25 to 250 nM

CS(=O)(=O)c1ccc(Nc2cc3c(C#Cc4ccc(OC(F)F)nc4)nccc3cn2)cc1 [Ex 539, 5-((6-(difluoromethoxy)pyridin-3-yl)ethynyl)-N-(4-(methylsulfonyl)phenyl)-2,6-naphthyridin-3-amine]
IC50 (CDK6/CCND1; [2]): > 250 nM
IC50 (CDK4/CCND3; [3]): > 250 nM
IC50 (CDK1/CCNB1; [4]): > 250 nM
IC50 (CDK2/CCNE1; [9]): 25 to 250 nM

CC1(O)C=C(c2nccc3cnc(Nc4ccc(S(C)(=O)=O)cc4)cc23)CCC1 (racemic) [Example 671, 1-methyl-3-(7-((4-(methylsulfonyl)phenyl)amino)-2,6-naphthyridin-1-yl)cyclohex-2-en-1-ol]
IC50 (CDK6/CCND1; x = IC50 25-250 nM, read-out: CDK6/CCND IC50 (25-250 nM)): 25 to 250 nM
IC50 (CDK4/CCND3; [3]): > 250 nM
IC50 (CDK1/CCNB1; [4]): > 250 nM
IC50 (CDK2/CCNE1; [5]): < 25 nM

CCC1(CC)C(=O)Nc2cc(C#Cc3nccc4cnc(Nc5ccc(S(=O)(=O)C6CCC6)cc5)cc34)ccc21 [Ex 409, 6-((7-((4-(cyclobutylsulfonyl)phenyl)amino)-2,6-naphthyridin-1-yl)ethynyl)-3,3-diethylindolin-2-one]
IC50 (CDK6/CCND1; [2]): > 250 nM
IC50 (CDK4/CCND3; [3]): > 250 nM
IC50 (CDK1/CCNB1; [4]): > 250 nM
IC50 (CDK2/CCNE1; [5]): < 25 nM

CS(=O)(=O)N1CCC(Nc2cc3c(-c4ccc(N)cc4)nccc3cn2)CC1 [Ex 73, 5-(4-aminophenyl)-N-(1-(methylsulfonyl)piperidin-4-yl)-2,6-naphthyridin-3-amine]
IC50 (CDK6/CCND1; <25 nM, read-out: CDK6/CCND IC50 <25 nM): < 25 nM
IC50 (CDK4/CCND3; 25-250 nM marked x, read-out: CDK4/CCND IC50 25-250 nM): 25 to 250 nM
IC50 (CDK1/CCNB1; 25-250 nM marked x, read-out: CDK1/CCNB IC50 25-250 nM): 25 to 250 nM
IC50 (CDK2/CCNE1; [10]): < 25 nM

CCC1(CC)C(=O)Nc2cc(C#Cc3nccc4cnc(Nc5ccc(S(=N)(=O)C6CC6)cc5)cc34)ccc21 (single isomer, unassigned) [Ex 410, 6-((7-((4-(cyclopropanesulfonimidoyl)phenyl)amino)-2,6-naphthyridin-1-yl)ethynyl)-3,3-diethylindolin-2-one]
IC50 (CDK6/CCND1; [2]): > 250 nM
IC50 (CDK4/CCND3; [11]): 25 to 250 nM
IC50 (CDK1/CCNB1; [12]): 25 to 250 nM
IC50 (CDK2/CCNE1; [5]): < 25 nM

Cc1cnc(C#Cc2nccc3cnc(Nc4ccc(S(C)(=O)=O)cc4)cc23)c(C)n1 [Ex 555, 5-((3,5-dimethylpyrazin-2-yl)ethynyl)-N-(4-(methylsulfonyl)phenyl)-2,6-naphthyridin-3-amine]
IC50 (CDK6/CCND1; [2]): > 250 nM
IC50 (CDK4/CCND3; [3]): > 250 nM
IC50 (CDK1/CCNB1; [4]): > 250 nM
IC50 (CDK2/CCNE1; [9]): 25 to 250 nM

C=CCS(=O)(=O)N1CCC(c2nccc3cnc(Nc4ccc(S(C)(=O)=O)cc4)cc23)C1 (racemic) [Ex 237, 5-(1-(allylsulfonyl)pyrrolidin-3-yl)-N-(4-(methylsulfonyl)phenyl)-2,6-naphthyridin-3-amine]
IC50 (CDK6/CCND1; [13]): > 250 nM
IC50 (CDK4/CCND3; [14]): > 250 nM
IC50 (CDK1/CCNB1; [15]): > 250 nM
IC50 (CDK2/CCNE1; >250 nM marked x, read-out: CDK2/CCNE IC50 >250 nM): > 250 nM

CCC1(CC)C(=O)Nc2cc(C#Cc3nccc4cnc(Nc5ccc(S(=N)(=O)C6COC6)cc5C)cc34)ccc21 (single isomer, unassigned) [Ex 316, 3,3-diethyl-6-((7-((2-methyl-4-(oxetane-3-sulfonimidoyl)phenyl)amino)-2,6-naphthyridin-1-yl)ethynyl)indolin-2-one]
IC50 (CDK6/CCND1; [13]): > 250 nM
IC50 (CDK4/CCND3; [14]): > 250 nM
IC50 (CDK1/CCNB1; [15]): > 250 nM
IC50 (CDK2/CCNE1; [10]): < 25 nM

CS(=O)(=O)c1ccc(Nc2cc3c(C#Cc4ccc5ncoc5c4)nccc3cn2)cc1 [Ex 604, 5-(benzo[d]oxazol-6-ylethynyl)-N-(4-(methylsulfonyl)phenyl)-2,6-naphthyridin-3-amine]
IC50 (CDK6/CCND1; [2]): > 250 nM
IC50 (CDK4/CCND3; [3]): > 250 nM
IC50 (CDK1/CCNB1; [4]): > 250 nM
IC50 (CDK2/CCNE1; [9]): 25 to 250 nM

CS(=N)(=O)c1ccc(Nc2cc3c(C#Cc4ccc5c(c4)NC(=O)C54CC4)nccc3cn2)cc1 (single isomer, unassigned) [Ex 358, 6'-((7-((4-(S-methylsulfonimidoyl)phenyl)amino)-2,6-naphthyridin-1-yl)ethynyl)spiro[cyclopropane-1,3'-indolin]-2'-one]
IC50 (CDK6/CCND1; [2]): > 250 nM
IC50 (CDK4/CCND3; [11]): 25 to 250 nM
IC50 (CDK1/CCNB1; [12]): 25 to 250 nM
IC50 (CDK2/CCNE1; [5]): < 25 nM

CS(=N)(=O)c1ccc(Nc2cc3c(C#Cc4cccnc4N)nccc3cn2)cc1 (single isomer, unassigned) [Ex 480, (4-((5-((2-aminopyridin-3-yl)ethynyl)-2,6-naphthyridin-3-yl)amino)phenyl)(imino)(methyl)-l6-sulfanone]
IC50 (CDK6/CCND1; [2]): > 250 nM
IC50 (CDK4/CCND3; [3]): > 250 nM
IC50 (CDK1/CCNB1; [4]): > 250 nM
IC50 (CDK2/CCNE1; [9]): 25 to 250 nM

CCC1(CC)C(=O)Nc2cc(C#Cc3nccc4cnc(Nc5ccc(S(C)(=N)=O)cc5)cc34)ccc21 (single isomer, unassigned) [Ex 426, 3,3-diethyl-6-((7-((4-(S-methylsulfonimidoyl)phenyl)amino)-2,6-naphthyridin-1-yl)ethynyl)indolin-2-one]
IC50 (CDK6/CCND1; [2]): > 250 nM
IC50 (CDK4/CCND3; [3]): > 250 nM
IC50 (CDK1/CCNB1; [12]): 25 to 250 nM
IC50 (CDK2/CCNE1; [5]): < 25 nM

CNS(=O)(=O)c1ccc(Nc2cc3c(C#Cc4cccnc4N)nccc3cn2)cc1 [Ex 469, 4-((5-((2-aminopyridin-3-yl)ethynyl)-2,6-naphthyridin-3-yl)amino)-N-methylbenzenesulfonamide]
IC50 (CDK6/CCND1; [2]): > 250 nM
IC50 (CDK4/CCND3; [11]): 25 to 250 nM
IC50 (CDK1/CCNB1; [12]): 25 to 250 nM
IC50 (CDK2/CCNE1; [5]): < 25 nM
